Test results from US12473262B2, “Aryl hydrocarbon receptor activators” (Oregon State University, priority 2019, dated 2025).

Biological target: aryl hydrocarbon receptor (AhR) (Mus musculus (Mouse), UniProt P30561)
Test: AhR ligand screening: AhRE-luciferase reporter in transfected Hepa1 cells
Format: cell-based
Settings: for Fold @ 1 nM: fold change of luciferase expression at 1 nM test compound relative to vehicle (0.1% DMSO); for Fold @ 100 nM: fold change of luciferase expression at 100 nM test compound relative to vehicle (0.1% DMSO); for Fold @ 10 uM: fold change of luciferase expression at 10 uM test compound relative to vehicle (0.1% DMSO); for Fold relative to benchmark @ 100 nM: luciferase expression at 100 nM test compound relative to 100 nM benchmark compound 11-cl-BBQ
Description: The AhR is a ligand-activated transcription factor that dimerizes with ARNT to regulate gene expression, and genes that are regulated by AhR ligands have AhR response elements (AhRE) in their promotor regions.
Briefly, Hepa1 cells were transfected with a reporter construct consisting of AhRE linked to luciferase. The addition of AhR ligands to the transfected cells induces luciferase production that is directly proportional to the amount of AhR activation. We used this reporter system to identify novel compounds with AhR-activating properties. Transfected Hepa1 cells were plated at a density of 1×10^4 cells/well in 100 μL of cell culture media in 96 well plates and grown overnight. […] Following incubation with the compounds, the media was removed, and cells were harvested with lysis buffer. The lysates were transferred to opaque 96 well plates, where they were assayed well-by-well for luciferase activity by injection of luciferase assay substrate with a 2 sec mixing time and 15 sec integration period on a Tropix TR717 microplate luminometer. Data were expressed as fold induction of luciferase relative to vehicle (0.1% DMSO) treated cells.

Chain of aryl hydrocarbon receptor (AhR) (P30561 10-805): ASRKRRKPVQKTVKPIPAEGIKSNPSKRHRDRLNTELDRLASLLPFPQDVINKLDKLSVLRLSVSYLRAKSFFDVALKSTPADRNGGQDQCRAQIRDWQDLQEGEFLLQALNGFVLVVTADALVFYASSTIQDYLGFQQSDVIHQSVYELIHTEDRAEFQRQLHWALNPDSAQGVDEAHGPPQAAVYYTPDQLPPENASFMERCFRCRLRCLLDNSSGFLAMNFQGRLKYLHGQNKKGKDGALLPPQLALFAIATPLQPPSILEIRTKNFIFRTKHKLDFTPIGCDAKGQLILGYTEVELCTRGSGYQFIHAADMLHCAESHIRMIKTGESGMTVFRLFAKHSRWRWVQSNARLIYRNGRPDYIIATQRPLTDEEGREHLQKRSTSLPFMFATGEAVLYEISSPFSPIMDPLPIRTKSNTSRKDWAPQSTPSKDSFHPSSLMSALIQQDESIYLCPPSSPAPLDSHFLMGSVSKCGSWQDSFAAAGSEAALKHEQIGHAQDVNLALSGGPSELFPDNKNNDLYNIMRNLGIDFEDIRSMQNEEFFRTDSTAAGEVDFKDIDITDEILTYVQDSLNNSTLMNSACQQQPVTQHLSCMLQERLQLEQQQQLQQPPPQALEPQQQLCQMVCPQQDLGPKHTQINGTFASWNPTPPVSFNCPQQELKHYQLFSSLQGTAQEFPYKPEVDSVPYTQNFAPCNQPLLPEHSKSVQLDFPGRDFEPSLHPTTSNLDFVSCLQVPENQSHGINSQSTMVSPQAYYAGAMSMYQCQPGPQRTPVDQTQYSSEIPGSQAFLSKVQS
Chain of aryl hydrocarbon receptor (AhR) (P53762 whole entry partner): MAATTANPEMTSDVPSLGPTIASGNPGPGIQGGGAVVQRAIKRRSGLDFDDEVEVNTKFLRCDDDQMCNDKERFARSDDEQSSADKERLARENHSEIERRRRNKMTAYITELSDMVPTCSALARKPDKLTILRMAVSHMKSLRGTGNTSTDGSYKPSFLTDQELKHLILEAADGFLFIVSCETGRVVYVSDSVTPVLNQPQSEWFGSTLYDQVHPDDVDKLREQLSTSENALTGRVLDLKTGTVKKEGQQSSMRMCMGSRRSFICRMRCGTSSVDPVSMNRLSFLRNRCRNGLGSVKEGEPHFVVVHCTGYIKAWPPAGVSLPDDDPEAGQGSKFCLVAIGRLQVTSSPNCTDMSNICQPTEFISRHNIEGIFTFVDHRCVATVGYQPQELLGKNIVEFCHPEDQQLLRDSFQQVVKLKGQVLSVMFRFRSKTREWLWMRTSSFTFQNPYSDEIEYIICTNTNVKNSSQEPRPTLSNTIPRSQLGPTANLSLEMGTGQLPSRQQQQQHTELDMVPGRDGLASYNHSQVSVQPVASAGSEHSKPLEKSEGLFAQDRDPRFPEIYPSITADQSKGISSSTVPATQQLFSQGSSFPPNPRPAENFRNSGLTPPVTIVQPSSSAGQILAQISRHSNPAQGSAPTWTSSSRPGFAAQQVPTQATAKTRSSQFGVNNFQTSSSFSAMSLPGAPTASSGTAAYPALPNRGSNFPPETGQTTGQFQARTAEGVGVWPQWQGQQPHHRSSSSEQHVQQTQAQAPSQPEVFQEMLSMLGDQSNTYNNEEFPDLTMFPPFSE

## O=C(c1ccccc1)n1c(-c2ccc(F)cc2)nc2cc(Cl)ccc21 [Compound 492]
  Fold @ 1 nM: 1 fold
  Fold @ 100 nM: 1 fold
  Fold @ 10 uM: 14 fold
  Fold relative to benchmark @ 100 nM: 0.03 fold

## O=C(c1ccc(F)c(F)c1)n1c(-c2cccc3ccccc23)nc2cc(Cl)c(Cl)cc21 [Compound 692]
  Fold @ 1 nM: 3 fold
  Fold @ 100 nM: 24 fold
  Fold @ 10 uM: 85 fold
  Fold relative to benchmark @ 100 nM: 0.92 fold

## O=C(c1ccccc1)n1c(-c2cccc(C(F)(F)F)c2)nc2cc(Cl)ccc21 [Compound 763]
  Fold @ 1 nM: 1 fold
  Fold @ 100 nM: 2 fold
  Fold @ 10 uM: 22 fold
  Fold relative to benchmark @ 100 nM: 0.08 fold

## O=C(c1ccncc1)n1c(-c2ccccc2)nc2cc(Cl)ccc21 [Compound 432]
  Fold @ 1 nM: 1 fold
  Fold @ 100 nM: 1 fold
  Fold @ 10 uM: 7 fold
  Fold relative to benchmark @ 100 nM: 0.03 fold

## O=C(c1ccccc1)n1c(-c2ccc3ccccc3c2)nc2cc(F)ccc21 [Compound 584]
  Fold @ 1 nM: 1 fold
  Fold @ 100 nM: 3 fold
  Fold @ 10 uM: 31 fold
  Fold relative to benchmark @ 100 nM: 0.2 fold

## O=C(c1ccc(F)c(F)c1)n1c(-c2cccc3ccccc23)nc2ccc(Br)cc21 [Compound 690]
  Fold @ 1 nM: 2 fold
  Fold @ 100 nM: 22 fold
  Fold @ 10 uM: 30 fold
  Fold relative to benchmark @ 100 nM: 0.85 fold

## O=C(c1ccc(F)c(F)c1)n1c(-c2ccnc3ccccc23)nc2cc(Cl)ccc21 [Compound 767]
  Fold @ 1 nM: 1 fold
  Fold @ 100 nM: 2 fold
  Fold @ 10 uM: 23 fold
  Fold relative to benchmark @ 100 nM: 0.08 fold

## O=C(c1ccc(SC(F)(F)F)cc1)n1c(-c2cccc3ccccc23)nc2cc(Cl)ccc21 [Compound 686]
  Fold @ 1 nM: 1 fold
  Fold @ 100 nM: 24 fold
  Fold @ 10 uM: 31 fold
  Fold relative to benchmark @ 100 nM: 0.92 fold

## COC(=O)c1ccc2nc(-c3cccc4ccccc34)n(S(=O)(=O)c3ccc(C#N)cc3)c2c1 [Compound 1362]
  Fold @ 1 nM: 5 fold
  Fold @ 100 nM: 3 fold
  Fold @ 10 uM: 18 fold
  Fold relative to benchmark @ 100 nM: 0.1 fold

## O=C(c1ccccc1)n1c(-c2cccc3c2CCCC3)nc2cc(Cl)ccc21 [Compound 777]
  Fold @ 1 nM: 1 fold
  Fold @ 100 nM: 2 fold
  Fold @ 10 uM: 6 fold
  Fold relative to benchmark @ 100 nM: 0.08 fold

## Cc1ccc(C(=O)c2c[nH]c3ccc(Cl)cc23)cc1 [Compound 882]
  Fold @ 1 nM: 1 fold
  Fold @ 100 nM: 1 fold
  Fold @ 10 uM: 2 fold
  Fold relative to benchmark @ 100 nM: 0.02 fold

## N#Cc1ccc(C(=O)n2c(-c3cccc4ccccc34)nc3cc(Cl)ccc32)cc1 [Compound 688]
  Fold @ 1 nM: 2 fold
  Fold @ 100 nM: 28 fold
  Fold @ 10 uM: 44 fold
  Fold relative to benchmark @ 100 nM: 1.08 fold

## O=C1c2ccccc2-c2nc3cc(Cl)ccc3n21 [Compound 489, 5-chloro-1,8-diazatetracyclo-[7.7.0.0^2,70.^10,15]hexadeca-2,4,6,8,10,12,14-heptaen-16-one]
  Fold @ 1 nM: 1 fold
  Fold @ 100 nM: 1 fold
  Fold @ 10 uM: 5 fold
  Fold relative to benchmark @ 100 nM: 0.03 fold

## Cc1ccc(S(=O)(=O)n2c(-c3cccc4ccccc34)nc3ccccc32)cc1 [Compound 579]
  Fold @ 1 nM: 1 fold
  Fold @ 100 nM: 1 fold
  Fold @ 10 uM: 2 fold
  Fold relative to benchmark @ 100 nM: 0.07 fold

## O=C(c1ccc2c(c1)nc(-c1cccc3ccccc13)n2S(=O)(=O)c1cccc(F)c1)N1CCCCC1 [Compound 1368]
  Fold @ 1 nM: 1 fold
  Fold @ 100 nM: 2 fold
  Fold @ 10 uM: 2 fold
  Fold relative to benchmark @ 100 nM: 0.07 fold

## CCc1ccc(S(=O)(=O)n2c(-c3cccc4ccccc34)nc3cc(Cl)ccc32)cc1 [Compound 775]
  Fold @ 1 nM: 1 fold
  Fold @ 100 nM: 19 fold
  Fold @ 10 uM: 25 fold
  Fold relative to benchmark @ 100 nM: 0.76 fold

## O=C(c1ccc(F)c(F)c1)n1c(-c2ccc(F)c(Cl)c2)nc2ccc(Cl)cc21 [Compound 581]
  Fold @ 1 nM: 1 fold
  Fold @ 100 nM: 1 fold
  Fold @ 10 uM: 15 fold
  Fold relative to benchmark @ 100 nM: 0.07 fold

## Clc1ccc2nc(-c3cccc4ccccc34)n(Cc3ccnc4ccccc34)c2c1 [Compound 868]
  Fold @ 1 nM: 1 fold
  Fold @ 100 nM: 2 fold
  Fold @ 10 uM: 28 fold
  Fold relative to benchmark @ 100 nM: 0.07 fold

## COc1ccc(C(=O)n2c(-c3cc4ccccc4s3)nc3ccc(F)cc32)cc1 [Compound 635]
  Fold @ 1 nM: 1 fold
  Fold @ 100 nM: 2 fold
  Fold @ 10 uM: 24 fold
  Fold relative to benchmark @ 100 nM: 0.22 fold

## O=c1c2cccc3cccc(c32)c2nc3ccc(Cl)cc3n12 [Compound 363, 7-chloro-3,10-diazapentacyclo[10.7.1.0^2,10.0^4,9.0^16,20]icosa-1(19),2,4(9),5,7,12,14,16(20),17-nonaen-11-one]
  Fold @ 1 nM: 4 fold
  Fold @ 100 nM: 14 fold
  Fold @ 10 uM: 30 fold
  Fold relative to benchmark @ 100 nM: 0.69 fold

## N#Cc1ccc2c(c1)nc(-c1cccc3ccccc13)n2C(=O)c1ccccc1 [Compound 770]
  Fold @ 1 nM: 1 fold
  Fold @ 100 nM: 2 fold
  Fold @ 10 uM: 2 fold
  Fold relative to benchmark @ 100 nM: 0.08 fold

## Clc1ccc2c(c1)nc(-c1cccc3ccccc13)n2Cc1ccnc2ccccc12 [Compound 867]
  Fold @ 1 nM: 1 fold
  Fold @ 100 nM: 2 fold
  Fold @ 10 uM: 32 fold
  Fold relative to benchmark @ 100 nM: 0.07 fold

## O=C(c1ccncc1)n1c(-c2ccccc2)nc2ccc(Cl)cc21 [Compound 431]
  Fold @ 1 nM: 1 fold
  Fold @ 100 nM: 1 fold
  Fold @ 10 uM: 8 fold
  Fold relative to benchmark @ 100 nM: 0.03 fold

## O=C(c1ccc2c(c1)nc(-c1cccc3ccccc13)n2Cc1cccc2ccccc12)N1CCOCC1 [Compound 1408]
  Fold @ 1 nM: 1 fold
  Fold @ 100 nM: 1 fold
  Fold @ 10 uM: 4 fold
  Fold relative to benchmark @ 100 nM: 0.03 fold

## Fc1cccc(F)c1Cn1c(-c2cccc3ccccc23)nc2cc(Cl)ccc21 [Compound 871]
  Fold @ 1 nM: 1 fold
  Fold @ 100 nM: 1 fold
  Fold @ 10 uM: 12 fold
  Fold relative to benchmark @ 100 nM: 0.02 fold

## COc1ccc(C(=O)n2c(-c3cccc(C(F)(F)F)c3)nc3cc(Cl)ccc32)cc1 [Compound 764]
  Fold @ 1 nM: 1 fold
  Fold @ 100 nM: 2 fold
  Fold @ 10 uM: 20 fold
  Fold relative to benchmark @ 100 nM: 0.08 fold

## Cn1cc(C(=O)c2cccc3ccccc23)c2cc(Cl)ccc21 [Compound 359, (5-chloro-1-methyl-1H-indol-3-yl)(naphthalen-1-yl)methanone]
  Fold @ 1 nM: 1 fold
  Fold @ 100 nM: 1 fold
  Fold @ 10 uM: 6 fold
  Fold relative to benchmark @ 100 nM: 0.03 fold

## COc1ccc(C(=O)n2c(-c3cccc4ccccc34)nc3cc(C)ccc32)cc1 [Compound 702]
  Fold @ 1 nM: 1 fold
  Fold @ 100 nM: 1 fold
  Fold relative to benchmark @ 100 nM: 0.04 fold

## CC(C)(C)c1cccc(-c2nc3cc(Cl)ccc3n2C(=O)c2ccccc2)c1 [Compound 790]
  Fold @ 1 nM: 1 fold
  Fold @ 100 nM: 1 fold
  Fold @ 10 uM: 2 fold
  Fold relative to benchmark @ 100 nM: 0.04 fold

## COc1ccc2c(c1)nc(-c1cccc3ccccc13)n2C(=O)c1ccccc1 [Compound 639]
  Fold @ 1 nM: 1 fold
  Fold @ 100 nM: 1 fold
  Fold @ 10 uM: 5 fold
  Fold relative to benchmark @ 100 nM: 0.11 fold

## O=C(c1ccccc1)n1c(-c2cccc3ccccc23)nc2cc(F)ccc21 [Compound 583]
  Fold @ 1 nM: 1 fold
  Fold @ 100 nM: 5 fold
  Fold @ 10 uM: 7 fold
  Fold relative to benchmark @ 100 nM: 0.33 fold

## O=C(c1cccc2ccccc12)n1c(-c2ccccc2)nc2ccc(Cl)cc21 [Compound 491]
  Fold @ 1 nM: 1 fold
  Fold @ 100 nM: 1 fold
  Fold @ 10 uM: 24 fold
  Fold relative to benchmark @ 100 nM: 0.03 fold

## N#Cc1ccc(C(=O)c2c[nH]c3ccc(Cl)cc23)cc1 [Compound 874]
  Fold @ 1 nM: 1 fold
  Fold @ 100 nM: 7 fold
  Fold @ 10 uM: 52 fold
  Fold relative to benchmark @ 100 nM: 0.13 fold

## O=C(c1ccccc1)n1c(-c2cccc3c2CCCC3)nc2ccc(Cl)cc21 [Compound 778]
  Fold @ 1 nM: 1 fold
  Fold @ 100 nM: 1 fold
  Fold @ 10 uM: 8 fold
  Fold relative to benchmark @ 100 nM: 0.04 fold

## O=C(c1ccc2nc(-c3cccc4ccccc34)n(S(=O)(=O)c3ccc4ccccc4c3)c2c1)N1CCCCC1 [Compound 1341]
  Fold @ 1 nM: 1 fold
  Fold @ 100 nM: 1 fold
  Fold @ 10 uM: 5 fold
  Fold relative to benchmark @ 100 nM: 0.03 fold

## COc1ccc(Cn2c(-c3cccc4ccccc34)nc3ccc(Cl)cc32)cc1 [Compound 853]
  Fold @ 1 nM: 1 fold
  Fold @ 100 nM: 1 fold
  Fold @ 10 uM: 11 fold
  Fold relative to benchmark @ 100 nM: 0.03 fold
